# Experimental data from ChEMBL document CHEMBL4834480, “Discovery of 3,5-Dimethyl-4-Sulfonyl-1H-Pyrrole-Based Myeloid Cell Leukemia 1 Inhibitors with High Affinity, Selectivity, and Oral Bioavailability” (J Med Chem, 2021).
# Activity calls are given as the source filed them. The calls are words filed in the database; no cut-off is given here.
# Legend:
# [1] = target: Voltage-gated inwardly rectifying potassium channel KCNH2 (Homo sapiens, UniProt Q12809); test: Inhibition of human ERG
# [2] = target: T1, Bcl-2-related protein A1 (Homo sapiens) (UniProt Q16548); test: Inhibition of FITC-labeled Bak BH3 peptide binding to GST-tagged BFL1 (1 to 151 residues) (unknown origin) expressed in Escherichia coli BL21 (DE3) at 10 uM incubated for 30 mins fluorescence polarization-based competitive binding assay relative to control
# T1 sequence (whole entry): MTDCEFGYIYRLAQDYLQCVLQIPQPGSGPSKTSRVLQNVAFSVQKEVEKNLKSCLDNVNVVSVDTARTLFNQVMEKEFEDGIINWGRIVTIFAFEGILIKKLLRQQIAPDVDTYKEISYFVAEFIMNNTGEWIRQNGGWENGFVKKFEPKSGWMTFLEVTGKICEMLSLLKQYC
# NCI-H929 [3] = test: Induction of apoptosis in human NCI-H929 cells assessed as activation of caspase 3 after 4 hrs by luminescence based microplate reader assay; format: functional, cell-based; conditions: dose microM <=5, time 4.0 hrs
# CYP2C19 = CYP2C19 (Homo sapiens, UniProt P33261); test: Inhibition of CYP2C19 (unknown origin) at 10 uM preincubated for 5 min followed by NADPH addition and measured after 20 mins by LC-MS/MS analysis relative to control; format: ADME; conditions: time 25 min
# CYP2C19, sequence (P33261 whole entry): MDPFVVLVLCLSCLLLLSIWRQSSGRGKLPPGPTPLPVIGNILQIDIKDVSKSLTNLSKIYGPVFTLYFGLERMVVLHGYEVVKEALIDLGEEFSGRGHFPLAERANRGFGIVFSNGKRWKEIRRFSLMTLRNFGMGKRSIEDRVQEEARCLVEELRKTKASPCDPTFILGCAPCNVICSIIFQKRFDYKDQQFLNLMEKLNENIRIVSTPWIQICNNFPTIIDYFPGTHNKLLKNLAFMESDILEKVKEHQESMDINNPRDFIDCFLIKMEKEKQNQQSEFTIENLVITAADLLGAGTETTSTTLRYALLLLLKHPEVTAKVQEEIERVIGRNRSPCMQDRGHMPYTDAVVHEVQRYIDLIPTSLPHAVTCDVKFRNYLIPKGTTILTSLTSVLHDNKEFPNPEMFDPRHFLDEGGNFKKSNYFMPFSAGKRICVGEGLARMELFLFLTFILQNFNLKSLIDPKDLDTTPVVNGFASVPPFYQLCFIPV
# [4] = Toxicity in BALB/c nude mouse xenografted with human MV4-11 cells assessed as effect on liver weight at 60 mg/kg, po administered every two days for 14 days; format: organism-based; conditions: in vivo, 336 h, time 14 day
# [5] = Toxicity in BALB/c nude mouse xenografted with human MV4-11 cells assessed as effect on heart at 20 mg/kg, ip administered every two days for 14 days by hematoxyin-eosin staining based analysis; format: organism-based; conditions: in vivo, 336 h, time 14 day
# [6] = Half life in Sprague-Dawley rat at 3 mg/kg, iv measured up to 24 hrs by LC-MS/MS analysis; format: ADME, organism-based; conditions: in vivo
# [7] = Clearance in Sprague-Dawley rat at 10 mg/kg, po measured up to 24 hrs by LC-MS/MS analysis; format: ADME, organism-based; conditions: in vivo
# [8] = Tmax in Sprague-Dawley rat at 10 mg/kg, po measured up to 24 hrs by LC-MS/MS analysis; format: ADME, organism-based; conditions: in vivo
# CYP2D6 = CYP2D6 (Homo sapiens, UniProt P10635); test: Inhibition of CYP2D6 (unknown origin) at 10 uM preincubated for 5 min followed by NADPH addition and measured after 20 mins by LC-MS/MS analysis relative to control; format: ADME; conditions: time 25 min
# CYP2D6, sequence (P10635 whole entry): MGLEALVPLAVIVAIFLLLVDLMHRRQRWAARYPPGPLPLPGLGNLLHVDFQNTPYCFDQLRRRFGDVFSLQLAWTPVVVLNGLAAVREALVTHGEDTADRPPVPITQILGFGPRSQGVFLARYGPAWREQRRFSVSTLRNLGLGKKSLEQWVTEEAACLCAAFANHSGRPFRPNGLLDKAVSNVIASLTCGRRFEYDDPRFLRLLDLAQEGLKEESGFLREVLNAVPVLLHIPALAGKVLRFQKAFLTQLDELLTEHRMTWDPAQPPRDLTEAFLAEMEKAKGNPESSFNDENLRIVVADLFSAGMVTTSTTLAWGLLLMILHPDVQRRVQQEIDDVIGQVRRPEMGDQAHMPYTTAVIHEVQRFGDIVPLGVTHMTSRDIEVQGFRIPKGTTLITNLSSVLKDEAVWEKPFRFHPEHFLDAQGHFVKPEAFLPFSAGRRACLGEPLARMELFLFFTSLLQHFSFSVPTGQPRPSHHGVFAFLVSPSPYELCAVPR
# [9] = Toxicity in BALB/c nude mouse xenografted with human MV4-11 cells assessed as effect on heart weight at 60 mg/kg, po administered every two days for 14 days; format: organism-based; conditions: in vivo, 336 h, time 14 day
# Bcl-2-like protein 1 = Bcl-2-like protein 1 (Homo sapiens, UniProt Q07817); test: Binding affinity to human partial length BCL-XL (M1 to R209 residues) expressed in bacterial expression system by BCL2SCAN assay
# Bcl-2-like protein 1, sequence (Q07817 whole entry, the tested form may be a part): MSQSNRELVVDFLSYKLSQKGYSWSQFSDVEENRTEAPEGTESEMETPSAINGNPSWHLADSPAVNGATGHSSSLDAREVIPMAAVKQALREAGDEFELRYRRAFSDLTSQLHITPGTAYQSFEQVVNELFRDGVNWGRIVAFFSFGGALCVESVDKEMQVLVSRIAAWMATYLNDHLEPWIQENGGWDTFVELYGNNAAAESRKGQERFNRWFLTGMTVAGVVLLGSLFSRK
# [10] = Toxicity in BALB/c nude mouse xenografted with human MV4-11 cells assessed as effect on body weight at 60 mg/kg, po administered every two days for 14 days; format: organism-based; conditions: in vivo, 336 h, time 14 day
# [11] = Half life in Sprague-Dawley rat at 10 mg/kg, po measured up to 24 hrs by LC-MS/MS analysis; format: ADME, organism-based; conditions: in vivo
# [12] = Oral bioavailability in Sprague-Dawley rat at 10 mg/kg measured up to 24 hrs by LC-MS/MS analysis; format: ADME, organism-based; conditions: in vivo
# [13] = Toxicity in BALB/c nude mouse xenografted with human MV4-11 cells assessed as effect on kidney weight at 20 mg/kg, ip administered every two days for 14 days; format: organism-based; conditions: in vivo, 336 h, time 14 day
# [14] = target: Apoptosis regulator Bcl-2 (Homo sapiens, UniProt P10415); test: Inhibition of FITC-labeled Bak BH3 peptide binding to GST-tagged BCL2 (1 to 205 residues) (unknown origin) expressed in Escherichia coli BL21 (DE3) at 10 uM incubated for 30 mins fluorescence polarization-based competitive binding assay relative to control
# Apoptosis regulator Bcl-2, sequence (P10415 whole entry, the tested form may be a part): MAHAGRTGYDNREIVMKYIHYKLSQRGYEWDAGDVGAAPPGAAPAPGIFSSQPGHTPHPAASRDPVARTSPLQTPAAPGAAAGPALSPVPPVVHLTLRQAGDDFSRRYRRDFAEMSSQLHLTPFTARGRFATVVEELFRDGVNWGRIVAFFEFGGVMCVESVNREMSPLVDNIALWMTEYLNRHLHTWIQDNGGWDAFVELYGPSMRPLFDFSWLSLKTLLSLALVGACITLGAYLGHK
# [15] = target: T2, Induced myeloid leukemia cell differentiation protein Mcl-1 (Homo sapiens, UniProt Q07820); test: Displacement of BAK from MCL1 in human NCI-H929 cells after 4 hrs by co-immunoprecipitation assay; format: cell-based; conditions: dose 0.1-0.5 µM
# T2 sequence (Q07820 whole entry, the tested form may be a part): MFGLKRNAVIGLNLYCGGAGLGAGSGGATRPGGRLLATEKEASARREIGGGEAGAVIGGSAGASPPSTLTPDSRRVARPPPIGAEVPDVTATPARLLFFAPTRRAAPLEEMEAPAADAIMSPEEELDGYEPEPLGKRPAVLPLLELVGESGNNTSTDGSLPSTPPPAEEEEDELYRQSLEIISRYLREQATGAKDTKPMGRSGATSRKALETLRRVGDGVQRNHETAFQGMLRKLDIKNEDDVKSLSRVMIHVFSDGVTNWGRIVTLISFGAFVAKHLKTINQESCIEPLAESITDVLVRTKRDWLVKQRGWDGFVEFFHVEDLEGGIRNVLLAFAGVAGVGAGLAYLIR
# [16] = target: T2, Induced myeloid leukemia cell differentiation protein Mcl-1; test: Inhibition of FITC-labeled Bak BH3 peptide binding to GST-tagged MCL1 (171 to 327 residues) (unknown origin) expressed in Escherichia coli BL21 (DE3) incubated for 30 mins fluorescence polarization-based competitive binding assay
# NCI-H929 [17] = test: Induction of apoptosis in human NCI-H929 cells measured after 48 hrs by annexinV-FITC/propidium iodide staining based flow cytometry analysis; format: functional, cell-based; conditions: dose 1-5 µM
# P-gp = P-gp (Homo sapiens, UniProt P08183); test: Substrate activity at P-gp in human Caco-2 cells assessed as efflux ratio of permeability by LC-MS/MS analysis; format: ADME, cell-based
# P-gp, sequence (P08183 whole entry, the tested form may be a part): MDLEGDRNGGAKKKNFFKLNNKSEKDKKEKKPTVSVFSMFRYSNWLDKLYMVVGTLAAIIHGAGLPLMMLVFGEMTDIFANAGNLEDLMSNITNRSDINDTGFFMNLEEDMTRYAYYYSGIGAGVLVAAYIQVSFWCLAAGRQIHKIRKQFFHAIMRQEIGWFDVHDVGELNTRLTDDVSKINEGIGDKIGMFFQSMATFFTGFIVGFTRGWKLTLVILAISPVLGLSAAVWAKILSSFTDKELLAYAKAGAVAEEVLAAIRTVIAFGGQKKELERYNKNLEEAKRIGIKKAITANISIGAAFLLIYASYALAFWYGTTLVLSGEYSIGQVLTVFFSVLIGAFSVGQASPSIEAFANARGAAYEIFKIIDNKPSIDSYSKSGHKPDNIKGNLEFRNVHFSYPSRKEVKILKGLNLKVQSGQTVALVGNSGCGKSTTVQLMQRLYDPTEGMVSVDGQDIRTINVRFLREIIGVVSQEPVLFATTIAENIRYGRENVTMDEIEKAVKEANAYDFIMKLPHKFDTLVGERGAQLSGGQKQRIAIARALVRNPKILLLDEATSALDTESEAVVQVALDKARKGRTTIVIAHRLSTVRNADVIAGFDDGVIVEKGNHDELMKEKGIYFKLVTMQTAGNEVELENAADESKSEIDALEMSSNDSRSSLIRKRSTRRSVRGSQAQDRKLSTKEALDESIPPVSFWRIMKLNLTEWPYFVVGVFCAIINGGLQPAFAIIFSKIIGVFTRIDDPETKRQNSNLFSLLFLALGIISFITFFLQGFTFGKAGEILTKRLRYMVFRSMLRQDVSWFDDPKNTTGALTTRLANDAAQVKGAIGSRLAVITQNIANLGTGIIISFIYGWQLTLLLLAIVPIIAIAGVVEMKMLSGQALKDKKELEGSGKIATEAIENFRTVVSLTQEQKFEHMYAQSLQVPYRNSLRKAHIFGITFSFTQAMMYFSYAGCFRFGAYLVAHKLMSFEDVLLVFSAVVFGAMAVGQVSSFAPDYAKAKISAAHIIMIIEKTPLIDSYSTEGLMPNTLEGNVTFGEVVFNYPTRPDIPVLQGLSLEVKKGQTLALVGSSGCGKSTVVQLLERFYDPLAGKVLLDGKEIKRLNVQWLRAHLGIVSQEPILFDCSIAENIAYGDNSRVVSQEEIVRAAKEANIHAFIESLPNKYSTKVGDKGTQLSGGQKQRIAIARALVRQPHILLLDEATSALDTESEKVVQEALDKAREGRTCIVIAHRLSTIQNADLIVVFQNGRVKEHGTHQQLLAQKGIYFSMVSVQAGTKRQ
# Bcl-2-like protein 2 = target: T3, Bcl-2-like protein 2 (Homo sapiens, UniProt Q92843); test: Binding affinity to human partial length BCLW (M1 to R171 residues) expressed in bacterial expression system by BCL2SCAN assay
# T3 sequence (Q92843 whole entry): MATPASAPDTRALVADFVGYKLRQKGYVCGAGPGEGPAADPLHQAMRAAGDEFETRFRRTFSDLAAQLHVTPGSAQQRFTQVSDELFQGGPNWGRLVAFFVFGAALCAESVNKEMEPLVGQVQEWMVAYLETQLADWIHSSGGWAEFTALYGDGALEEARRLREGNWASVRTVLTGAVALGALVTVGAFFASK
# [18] = Intrinsic clearance in rat liver microsomes; format: ADME, Microsome; conditions: read-out: CLH
# Bcl-2-related protein A1 = target: T4, Bcl-2-related protein A1 (Homo sapiens, UniProt Q16548); test: Binding affinity to human partial length BCL2A1 (M1 to G153 residues) expressed in bacterial expression system by BCL2SCAN assay
# T4 sequence (Q16548 whole entry): T1 sequence (whole entry)
# MV4-11 [19] = test: Induction of apoptosis in human MV4-11 cells xenografted in BALB/c nude mouse assessed as induction of PARP cleavage at 60 mg/kg, po administered every two days for 14 days by Western blot analysis; format: functional, organism-based; conditions: time 14.0 day
# MV4-11 [20] = test: Antitumor activity against human MV4-11 cells xenografted in BALB/c nude mouse assessed as tumor growth inhibition by measuring T/C ratio at 20 mg/kg, ip administered every two days for 14 days relative to control; format: functional; conditions: time 14 day
# [21] = Apparent volume of distribution in Sprague-Dawley rat at 10 mg/kg, po measured up to 24 hrs by LC-MS/MS analysis; format: ADME, organism-based; conditions: in vivo
# [22] = Permeability of the compound at pH 7.4 measured after 4 hrs by PAMPA assay; format: ADME; conditions: read-out: permeability
# [23] = Half life in rat liver microsomes; format: ADME, Microsome
# MV4-11 [24] = test: Antitumor activity against human MV4-11 cells xenografted in BALB/c nude mouse assessed as tumor growth inhibition by measuring T/C ratio at 60 mg/kg, po administered every two days for 14 days relative to control; format: functional; conditions: time 14 day
# NCI-H929 [25] = test: Induction of apoptosis in human NCI-H929 cells assessed as activation of caspase 7 after 4 hrs by luminescence based microplate reader assay; format: functional, cell-based; conditions: dose microM <=5, time 4.0 hrs
# K562 = test: Antiproliferative activity against human K562 cells assessed as decrease in cell viability measured after 72 hrs by MTT assay; format: functional, cell-based; conditions: K562, 72 h
# Voltage-gated inwardly rectifying potassium channel KCNH2, sequence (Q12809 whole entry, the tested form may be a part): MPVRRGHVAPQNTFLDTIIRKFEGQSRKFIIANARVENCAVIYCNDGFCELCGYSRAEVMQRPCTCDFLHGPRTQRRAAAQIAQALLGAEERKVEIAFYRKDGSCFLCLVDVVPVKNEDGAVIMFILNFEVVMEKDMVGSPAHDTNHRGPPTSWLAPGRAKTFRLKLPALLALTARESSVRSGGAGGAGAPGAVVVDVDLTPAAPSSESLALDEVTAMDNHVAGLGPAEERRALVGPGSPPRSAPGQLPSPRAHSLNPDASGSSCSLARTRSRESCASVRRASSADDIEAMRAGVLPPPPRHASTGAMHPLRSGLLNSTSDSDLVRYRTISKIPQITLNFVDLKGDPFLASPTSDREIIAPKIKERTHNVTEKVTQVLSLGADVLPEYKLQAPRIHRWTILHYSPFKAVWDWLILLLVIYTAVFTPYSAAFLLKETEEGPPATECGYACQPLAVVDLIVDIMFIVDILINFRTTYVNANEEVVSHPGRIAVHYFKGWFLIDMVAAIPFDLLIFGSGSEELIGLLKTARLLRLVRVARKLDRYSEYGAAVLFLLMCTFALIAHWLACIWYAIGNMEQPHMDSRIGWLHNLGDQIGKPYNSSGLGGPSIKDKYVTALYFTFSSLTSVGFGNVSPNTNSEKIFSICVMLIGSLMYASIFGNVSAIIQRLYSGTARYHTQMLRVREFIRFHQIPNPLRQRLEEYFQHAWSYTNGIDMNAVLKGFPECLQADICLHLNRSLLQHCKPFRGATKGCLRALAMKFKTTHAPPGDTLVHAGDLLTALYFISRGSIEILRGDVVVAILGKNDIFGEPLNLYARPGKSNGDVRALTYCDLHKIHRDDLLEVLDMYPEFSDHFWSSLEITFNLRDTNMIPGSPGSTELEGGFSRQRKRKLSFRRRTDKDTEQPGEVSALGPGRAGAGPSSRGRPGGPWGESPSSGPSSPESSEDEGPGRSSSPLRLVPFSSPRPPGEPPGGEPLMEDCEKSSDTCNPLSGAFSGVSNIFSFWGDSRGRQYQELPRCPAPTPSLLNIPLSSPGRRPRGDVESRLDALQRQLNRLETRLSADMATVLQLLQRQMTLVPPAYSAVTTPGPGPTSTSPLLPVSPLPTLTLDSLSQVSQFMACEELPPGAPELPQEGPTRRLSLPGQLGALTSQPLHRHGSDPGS
smiles,measurement,setting,value
CC(=O)c1ccc(S(=O)(=O)c2c(C)c(C(=O)O)n(CCCOc3cc(C)c(Cl)c(C)c3)c2C)cc1,IC50,[1],> 30 µM
same,inhibition,[2],1.57%
same,Activity,NCI-H929 [3],Dose-Dependent Effect
same,"inhibition at 20 min, 10 µM",CYP2C19,2.85%
same,Activity,[4],Non-Toxic
same,Activity,[5],Non-Toxic
same,half-life,[6],2.3 h
same,CL/F,[7],36.8 mL/min/kg
same,Tmax,[8],0.5 h
same,"inhibition at 20 min, 10 µM",CYP2D6,9.13%
same,Activity,[9],Non-Toxic
same,Kd,Bcl-2-like protein 1,> 10 µM
same,Activity,[10],Non-Toxic
same,half-life,[11],2.1 h
same,bioavailability,[12],41.3%
same,Activity,[13],Non-Toxic
same,inhibition,[14],10%
same,inhibition,[15],Dose-Dependent Effect
same,Ki,[16],0.02 µM
same,Activity,NCI-H929 [17],Dose-Dependent Effect
same,efflux ratio,P-gp,0.1
same,Kd,Bcl-2-like protein 2,> 10 µM
same,microsomal CLint,[18],31.4 µL/min/mg
same,Kd,Bcl-2-related protein A1,> 10 µM
same,Activity,MV4-11 [19],Active
same,T/C,MV4-11 [20],5.52%
same,Vz,[21],6.65475 L/kg
same,Papp at 4 h,[22],52.6 ×10⁻⁶ cm/s
same,half-life,[23],0.75 h
same,T/C,MV4-11 [24],37.3%
same,Activity,NCI-H929 [25],Dose-Dependent Effect
same,IC50,K562,> 30 µM
